According to patent US20120208781A1, “AMINOGLYCOSIDE DOSING REGIMENS” (Achaogen, Inc., priority 2009, published 2012):
In brackets after ≈: the same amount, converted by molar mass.

Columns and labels:
[1] = system: P. aeruginosa (PSA); test: MIC, CLSI broth microdilution, worldwide isolates: P. aeruginosa; assay type: cell-based
Excerpt: In the first study, a total of 235 isolates were collected from medical centers worldwide and tested for susceptibility to Compound 1 and comparator agents by CLSI broth microdilution methods. […] Non-ENT GN pathogens included WT P. aeruginosa (PSA) and Acinetobacter spp. (ACB), and carbapenem (CARB)-R strains, including those with MBL and OXA enzymes, SA and coagulase-negative staphylococci (CoNS) included oxacillin-susceptible (MSSA/MS-CoNS) and —R (MRSA/MR-CoNS) strains.
Minimum inhibitory concentrations (MIC) were determined by reference Clinical and Laboratory Standards Institute (CLSI) broth microdilution methods per M7-A7 [2006]. Briefly, serial two-fold dilutions of Compound 1 and comparator AGs (together, “the test compounds”) were prepared at 2× concentration in appropriate diluent. The dilutions were mixed in 96-well assay plates with bacterial inoculum. Bacteria were suspended in sterile saline and added to each assay plate to obtain a final concentration of 5.5×10^5 CFU/mL. The plates were incubated at 35° C. for 20 hours in ambient air. […] After incubation, assay plates were read using a microtiter plate reader at 600 nm.

[2] = system: glomerular filtration rate; test: First-in-human phase 1 study: renal function (BUN, Cr, iothalamate GFR); assay type: in vivo; settings: healthy volunteers
Experimental: Safety evaluation was based on clinical observations, vital sign measurements, laboratory tests, physical examination, electrocardiogram, cochlear function, vestibular function testing, and reported adverse events. Cochlear function was evaluated by pure tone audiometry with bone conduction and otoacoustic emission (OAE) testing. Vestibular function was evaluated by electronystagmography (ENG) and Dynamic Visual Acuity (DVA) test. Laboratory tests included complete blood count (CBC), serum chemistries, and urinalysis. BUN and creatinine (Cr) were assessed daily on dosing days to allow the Investigator to monitor renal function. Results were used as criteria for dose escalation. The glomerular filtration rate (GFR) was estimated using iothalamate plasma measurements before dosing and after the multiple dose periods. GFR was also assessed by Cr clearance before dosing and after the multiple dose periods.
Iothalamate was infused the day prior to the single-dose and prior to the first multiple-dose and the day after the last multiple-dose. Blood samples for iothalamate analysis for GFR calculation were obtained prior to the start of the iothalamate infusion and the following hours after the start of the infusion: 1, 2, 4, and 8.

[3] = system: cochlear hair cells; test: Cytocochleogram analysis in 28-day guinea pig ototoxicity model; assay type: in vivo, guinea pigs
Experimental: Following euthanasia and whole body intravascular perfusion with 4% paraformaldehyde, the temporal bones of the left and right ears were removed. Gross middle ear assessments were performed using a dissecting microscope. […] Following gross middle ear assessment, the cochleas of the left ear were fixed by intrascalar perfusion with 4% paraformaldehyde. Cochlea tissues of both ears were placed in 4% paraformaldehyde for approximately 1 hour. Tissues were then transferred to 0.5% paraformaldehyde, stored refrigerated, and shipped on gel packs to the Kresge Hearing Research Institute, Ann Arbor, Mich., for further processing and cytocochleogram analysis.
These guinea pig ototoxicity studies also included microscopic analysis of surgically dissected cochleas from each animal to assess hair cell damage (cytocochleograms). The underlying cause of aminoglycoside related hearing loss is damage to the hair cells of the auditory system after significant accumulation of aminoglycosides in the inner ear. In the cochlea, drug-induced hair cell loss typically progresses from the basal to the apical turns of the cochlea. Perception of high-frequency sounds, a function of the basal hair cells, is lost first; perception of low-frequency sounds, a function of the more apical hair cells, is the last to be lost (Selimoglu, E., Curr Pharm Des. 2007; 13(1):119-26). For obvious reasons, it is impractical to obtain cytocochleograms from each animal prior to dosing, and some hair cell loss is usually observed in control (vehicle dosed) animals in these guinea pig studies. This variability makes it difficult to determine whether hair cell loss observed post-treatment is due to the drug treatment, especially mild hair cell loss, […]

[4] = system: E. coli (EC); test: MIC, broth microdilution, Brooklyn hospital isolates: E. coli; assay type: cell-based; settings: Escherichia coli; EC (n = 32)
Experimental: In another study, the activity of Compound 1 against a collection of contemporary Gram-negative bacteria was determined. Unique patient isolates of P. aeruginosa (PA), A. baumannii (AB), K. pneumoniae (KP), E. coli (EC), and Enterobacter spp. (EB) from prior surveys at 16 Brooklyn, N.Y. hospitals were selected based on resistance patterns. The majority of isolates were fingerprinted by automated ribotyping. MICs were performed by broth microdilution. PCR was used to identify aminoglycoside-modifying enzymes (AMEs) in AB and KP and the KPC gene in Enterobacteriaceae (EN). The expression of the efflux genes mexA, C, E and X in PA, and adeB in AB was assessed by real-time RT-PCR.

[5] = In vitro stability in plasma, microsomes and hepatocytes; assay type: in vitro ADME; settings: liver microsomes and hepatocytes
Experimental: Bioanalytical data analyses were carried out using Analyst software (version 1.4.1, Applied Biosystems, Toronto, ON, Canada). […] PK parameters were determined by noncompartmental analysis using WinNonLin. Plasma protein binding was determined using equilibrium dialysis. In vitro stability was determined using commercially available plasma, microsomes and hepatocytes.

[6] = Phase 1 study 15 mg/kg/day once daily for five days: pharmacokinetics; assay type: in vivo; settings: human
Experimental: An additional randomized, double-blind, placebo-controlled study was performed to assess the safety and pharmacokinetics of Compound 1 following IV administration to healthy adult volunteers according to a high dose, short course regimen of 15 mg/kg/day of Compound 1 administered once daily for five days. Compound 1 was formulated as a sterile solution at a concentration of 50 mg/mL in 10 mL glass vials for intravenous (IV) administration (“Compound 1 Injection”). Eight healthy subjects were randomized to receive either Compound 1 Injection or placebo administered IV by 10 minute infusion daily for five days. Seven subjects received 5 doses and one received 3 doses (early withdrawal for personal reasons).

[7] = Pseudomonas aeruginosa, PSA isolates
[8] = after 5 days of once-daily IV 15 mg/kg
[9] = plasma, after 5 days of once-daily IV 15 mg/kg

CN[C@@H]1[C@@H](O)[C@@H](O[C@@H]2[C@@H](O)[C@H](O[C@H]3OC(CNCCO)=CC[C@H]3N)[C@@H](N)C[C@H]2NC(=O)[C@@H](O)CCN)OC[C@]1(C)O [Compound 1, 6′-(2-Hydroxy-ethyl)-1-(4-amino-2(S)-hydroxy-butyryl)-sisomicin]
Cumulative % inhibited at Cmpd. MIC 1 ([1]; PSA (30)): 3.3%
Cumulative % inhibited at Cmpd. MIC 2 ([1]; PSA (30)): 3.3%
Cumulative % inhibited at Cmpd. MIC 4 ([1]; PSA (30)): 30.0%
Cumulative % inhibited at Cmpd. MIC 8 ([1]; PSA (30)): 50.0%
Cumulative % inhibited at Cmpd. MIC 16 ([1]; PSA (30)): 76.7%
Cumulative % inhibited at Cmpd. MIC 32 ([1]; PSA (30)): 96.7%
Cumulative % inhibited at Cmpd. MIC 64 ([1]; PSA (30)): 96.7%
Cumulative % inhibited at Cmpd. MIC >64 ([1]; PSA (30)): 100.0%
Cumulative % inhibited at Cmpd. MIC ≦0.5 ([1]; PSA (30)): 0.0%
Cumulative % inhibited at Cmpd. MIC 1 ([1]; PSA, CARB-R (20)): 0.0%
Cumulative % inhibited at Cmpd. MIC 2 ([1]; PSA, CARB-R (20)): 0.0%
Cumulative % inhibited at Cmpd. MIC 4 ([1]; PSA, CARB-R (20)): 10.0%
Cumulative % inhibited at Cmpd. MIC 8 ([1]; PSA, CARB-R (20)): 25.0%
Cumulative % inhibited at Cmpd. MIC 16 ([1]; PSA, CARB-R (20)): 65.0%
Cumulative % inhibited at Cmpd. MIC 32 ([1]; PSA, CARB-R (20)): 95.0%
Cumulative % inhibited at Cmpd. MIC 64 ([1]; PSA, CARB-R (20)): 95.0%
Cumulative % inhibited at Cmpd. MIC >64 ([1]; PSA, CARB-R (20)): 100.0%
Cumulative % inhibited at Cmpd. MIC ≦0.5 ([1]; PSA, CARB-R (20)): 0.0%
Cumulative % inhibited at Cmpd. MIC 1 ([1]; PSA, WT (10)): 10.0%
Cumulative % inhibited at Cmpd. MIC 2 ([1]; PSA, WT (10)): 10.0%
Cumulative % inhibited at Cmpd. MIC 4 ([1]; PSA, WT (10)): 70.0%
Cumulative % inhibited at Cmpd. MIC 8 ([1]; PSA, WT (10)): 100.0%
Cumulative % inhibited at Cmpd. MIC ≦0.5 ([1]; PSA, WT (10)): 0.0%
MIC50 [1, 7]: 8 µg/mL (≈ 13.5 µM)
MIC90 [1, 7]: 32 µg/mL (≈ 54 µM)
iothalamate plasma measurements (GFR) [2]: did not change
animals with a few spikes of minimal hair cell loss ([3]; guinea pigs, 8 mg/kg): 2/8
animals with minimal to moderate outer hair cell loss at the apical end or middle region ([3]; guinea pigs, 30 mg/kg): 3/8
animals with large loss of outer hair cells across the length of the cochlea ([3]; guinea pigs, 80 mg/kg): One of 8
animals with minimal loss of both inner and outer hair cells at the mid-cochlea or apical end ([3]; guinea pigs, 80 mg/kg): 2/8
dose-response of hair cell loss ([3]; guinea pigs, 8, 30, 80 mg/kg): no dose-response of hair cell loss
MIC50 [4]: 1 µg/mL (≈ 1.69 µM)
MIC90 [4]: 2 µg/mL (≈ 3.37 µM)
in vitro stability [5]: stable
area under the plasma concentration-time curve [6, 8]: 239 µg·h/mL
fluctuation index [6, 8]: > 1000%
trough (Cmin) [6, 8]: 0.4 µg/mL
drug accumulation ([6]; once-daily dosing for up to 5 days): lack of appreciable drug accumulation
AUC ([6]; plasma, intravenous, 15 mg/kg, read-out: average AUC in humans): ~240 µg·h/mL
clearance [6, 9]: 1.1 mL/min/kg
half-life [6, 9]: ~3 h
Cmax ([6]; plasma, after 5 days of once-daily IV 15 mg/kg, read-out: peak (Cmax)): 113 µg/mL
Vd ([6]; plasma, after 5 days of once-daily IV 15 mg/kg, read-out: steady state volume of distribution): 0.24 L/kg
